Test results from patent publication US20250082633A1, “COMPOUNDS AND METHODS FOR MODULATING SPLICING” (REMIX THERAPEUTICS INC., priority 2021, published 2025).
Read-outs that look alike come from different tables or passages of the source.

Experiments:
Assay type in all cases: cell-based
Target C = experiment: RT-qPCR splicing assay, gene panel, Target C canonical junction (CJ) mRNA; conditions: Homo sapiens; decrease in CJ mRNA levels; larger panel of genes; Table 3; read-out: Target C CJ IC50
Protocol: (§1) Compounds described herein were used to modulate RNA transcript abundance in cells. The expression of a target mRNA was measured by detecting the formation of an exon-exon junction in the canonical transcript (CJ). A compound mediated exon-inclusion event was detected by observing an increase in formation of a new junction with an alternative exon (AJ). Real-time qPCR assays were used to detect these splicing switches and interrogate the potency of various compounds towards different target genes. A high-throughput real time quantitative PCR (RT-qPCR) assay was developed to measure these two isoforms of the mRNA (CJ and AJ) for exemplary genes, such as HTT, SMN2, and MYB, together with a control housekeeping gene, GAPDH or GUSB or PPIA, used for normalization. Briefly, the A673 or K562 cell line was treated with various compounds described herein (e.g., compounds of Formula (I)). After treatment, the levels of the HTT, MYB, or SMN2 mRNA targets were determined from each sample of cell lysate by cDNA synthesis followed by qPCR.
(§2) The A673 cell line was cultured in DMEM with 10% FBS. Cells were diluted with full growth media and plated in a 96-well plate (15,000 cells in 100 ul media per well). The plate was incubated at 37° C. with 5% CO2 for 24 hours to allow cells to adhere. An 11-point 3-fold serial dilution of the compounds was made in DMSO then diluted in media in an intermediate plate. Compounds were transferred from the intermediate plate to the cell plate with the top dose at a final concentration of 10 uM in the well. Final DMSO concentration was kept at or below 0.25%. The cell plate was returned to the incubator at 37° C. with 5% CO2 for an additional 24 hours.
(§3) The K562 cell line was cultured in IMDM with 10% FBS. For K562, cells were diluted with full growth media and plated in either a 96-well plate (50,000 cells in 50 uL media per well) or a 384-well plate (8,000-40,000 cells in 45 uL media per well). An 11-point 3-fold serial dilution of the compounds were made in DMSO then diluted in media in an intermediate plate. Compound was transferred from the intermediate plate to the cell plate with the top dose at a final concentration of 10 uM in the well. Final DMSO concentration was kept at or below 0.25%. Final volume was 100 uL for 96-well plate and 50 uL for 384-well plate. The cell plate was then placed in an incubator at 37° C. with 5% CO2 for 24 hours.
(§4) The cells were then gently washed with 50 uL-100 uL cold PBS before proceeding to addition of lysis buffer. 30 uL-50 μL of room temperature lysis buffer with DNAse I (and optionally RNAsin) was added to each well. Cells were shaken/mixed thoroughly at room temperature for 5-10 minutes for lysis to take place and then 3 uL-5 μL of room temperature stop solution was added and wells were shaken/mixed again. After 2-5 minutes, the cell lysate plate was transferred to ice for RT-qPCR reaction setup. The lysates could also be frozen at −80° C. for later use.
(§5) In some cases, a direct lysis buffer was used. An appropriate volume of 3× lysis buffer (10 mM Tris, 150 mM NaCl, 1.5%-2.5% Igepal and 0.1-1 U/uL RNAsin, pH 7.4) was directly added to either K562 or A673 cells in media and mixed by pipetting 3 times. The plates were then incubated at room temperature with shaking/rocking for 20-50 minutes to allow for lysis to take place. After this time, the cell lysate plate was transferred to ice to set up for the RT-qPCR reactions. The lysates could also be frozen at −80° C. for later use.
(§6) To set up 10 uL RT-qPCR reactions, cell lysates were transferred to 384-well qPCR plates containing the master mix according to the table below. The plates were sealed, gently vortexed, and spun down before the run. The volumes were adjusted accordingly in some instances where the reaction was carried in 20 μL. The table below summarizes the components of the RT-qPCR reactions:
(§7) The RT-qPCR reaction was performed using a QuantStudio (ThermoFisher) under the following fast cycling conditions. […]

SMN2 mRNA = experiment: RT-qPCR splicing assay, gene panel, SMN2 canonical junction (CJ) mRNA; conditions: Homo sapiens; decrease in CJ mRNA levels; larger panel of genes; Table 3; read-out: SMN2 CJ IC50
Protocol: as §1, §2, §3, §4, §5, §6, §7

K562 cells = experiment: Cell Titer Glo 2.0 cell viability assay; conditions: Homo sapiens, 500 cells/well, 72 hours
Protocol: Compounds described herein were screened for toxicity in K562 (human chronic myelogenous leukemia) and SH-SY5Y (human neuroblastoma) cells using a Cell Titer Glo 2.0 assay. • Promega CellTiter-Glo® 2.0 Cell Viability Assay (cat #G9241) • Corning 384-well TC-treated microplates (cat #3570) Cells were plated at 500 cells/well (K562 cells) in 45 μL of IMDM supplemented with 10% FBS in a 384-well opaque plate. Wells containing only medium were used as a blank control. Test compounds (e.g., compounds of Formula (I), (II), or (III)) were first serially diluted in DMSO then diluted 1:100 with IMDM+10% FBS. The final concentration of DMSO was 0.1% in each well. The cells were incubated for 72 hours at 37° C. and 5% CO2 before assaying with Cell Titer Glo 2.0 reagent.

MYB mRNA = experiment: RT-qPCR splicing assay, MYB canonical (CJ) and alternative (AJ) junction mRNA; conditions: Homo sapiens; for IC50: read-out: MYB CJ IC50; for AC50: increase in alternative junction mRNA, read-out: MYB AJ AC50
Protocol: as §1
(§8) • Cells-to-CT 1-step kit: ThermoFisher A25602, Cells-to-CT lysis reagent: ThermoFisher 4391851C, TaqMan™ Fast Virus 1-Step Master Mix: ThermoFisher 4444436 • GAPDH: VIC-PL, ThermoFisher 4326317E (Assay: Hs99999905_m1)—used for K562/suspension cell lines • GUSB: VIC-PL, ThermoFisher 4326320E (Assay: Hs99999908_m1)—used for K562/suspension cell lines • PPIA: VIC-PL, ThermoFisher 4326316E (Assay: Hs99999904_m1)—used for A673/adherent cell lines
as §2, §3, §4
as §5, with “use. […]” for “use.”

HTT mRNA = experiment: RT-qPCR splicing assay, HTT canonical (CJ) and alternative (AJ) junction mRNA; conditions: Homo sapiens; for IC50: read-out: HTT CJ IC50; for AC50: increase in alternative junction mRNA, read-out: HTT AJ AC50
Protocol: as §1, §8, §2, §3, §4
as §5, with “use. […]” for “use.”

[1] = decrease in CJ mRNA levels, larger panel of genes, Table 3
[2] = decrease in canonical junction mRNA, A673 or K562 cells, 24 hours treatment, Table 2
[3] = A673 or K562 cells, 24 hours treatment, Table 2

Row | Compound | IC50 (Target C) | IC50 (SMN2 mRNA) | GI50 (K562 cells) | IC50 (MYB mRNA; [1]) | IC50 (MYB mRNA; [2]) | IC50 (HTT mRNA; [1]) | IC50 (HTT mRNA; [2]) | AC50 (MYB mRNA; [3]) | AC50 (HTT mRNA; [3])
1 | Cc1cn2nc(-c3cc(F)c4nn(C5CCNC6(CC6)C5)cc4c3)cc2c(C)n1 (stereo in doubt) [Compound 205, 2-[2-[(7S)-4-azaspiro[2.5]octan-7-yl]-7-fluoro-indazol-5-yl]-4,6-dimethyl-pyrazolo[1,5-a]pyrazine] | 1 to 10 µM | 0.1 to 1 µM | 1 to 10 µM | 1 to 10 µM | 1 to 10 µM | 0.1 to 1 µM | 0.1 to 1 µM | 0.1 to 1 µM | 0.1 to 1 µM
2 | Cc1cn2nc(-c3cc(F)c4nn([C@H]5CCN(C)C[C@@H]5F)cc4c3)cc(C)c2n1 [Compound 196, 6-[7-fluoro-2-[(3S,4S)-3-fluoro-1-methyl-4-piperidyl]indazol-5-yl]-2,8-dimethyl-imidazo[1,2-b]pyridazine] | > 10 µM | 0.1 to 1 µM | > 10 µM | > 10 µM | > 10 µM | 1 to 10 µM | 1 to 10 µM | 1 to 10 µM | 1 to 10 µM
3 | Cc1cn2nc(-c3cc(F)c4nn([C@@H]5CCN(C)C[C@H]5F)cc4c3)cc(C)c2n1 [Compound 197, 6-(7-fluoro-2-((3R,4R)-3-fluoro-1-methylpiperidin-4-yl)-2H-indazol-5-yl)-2,8-dimethylimidazo[1,2-b]pyridazine] | 1 to 10 µM | 0.1 to 1 µM | 1 to 10 µM | 1 to 10 µM | 1 to 10 µM | 0.1 to 1 µM | 0.1 to 1 µM | 1 to 10 µM | 0.1 to 1 µM
4 | Cc1cn2nc(-c3ccc4nn(C5CCNC6(CC6)C5)cc4n3)cc(C)c2n1 (stereo not drawn) [Compound 201, 6-[2-(4-azaspiro[2.5]octan-7-yl)pyrazolo[4,3-b]pyridine-5-yl]-2,8-dimethyl-imidazo[1,2-b]pyridazine] | 1 to 10 µM | 0.1 to 1 µM | 1 to 10 µM | 1 to 10 µM | 1 to 10 µM | 0.1 to 1 µM | 0.1 to 1 µM | 1 to 10 µM | 1 to 10 µM
5 | Cc1cn2nc(-c3cc(C)c4nn(C5CCNC6(CC6)C5)cc4n3)cc(C)c2n1 (stereo not drawn) [Compound 208, 2-(4-azaspiro[2.5]octan-7-yl)-5-(2,8-dimethylimidazo[1,2-b]pyridazin-6-yl)-7-methyl-pyrazolo[4,3-b]pyridine] | > 10 µM | 1 to 10 µM | – | > 10 µM | > 10 µM | > 10 µM | > 10 µM | > 10 µM | > 10 µM

Now from value to compound, other results behind:

Row | IC50 (Target C) | IC50 (SMN2 mRNA) | GI50 (K562 cells) | IC50 (MYB mRNA; [1]) | IC50 (MYB mRNA; [2]) | IC50 (HTT mRNA; [1]) | IC50 (HTT mRNA; [2]) | Compound | AC50 (MYB mRNA; [3]) | AC50 (HTT mRNA; [3])
6 | 0.1 to 1 µM | 0.1 to 1 µM | 0.1 to 1 µM | 0.1 to 1 µM | 0.1 to 1 µM | < 0.1 µM | < 0.1 µM | Cc1cn2nc(-c3cc(F)c4nn(C5CCNC6(CC6)C5)cc4c3)cc2c(C)n1 (stereo in doubt) [Compound 206, 2-[2-[(7R)-4-azaspiro[2.5]octan-7-yl]-7-fluoro-indazol-5-yl]-4,6-dimethyl-pyrazolo[1,5-a]pyrazine] | 0.1 to 1 µM | 0.1 to 1 µM
7 | < 0.1 µM | – | 0.1 to 1 µM | 0.1 to 1 µM | 0.1 to 1 µM | < 0.1 µM | < 0.1 µM | Cc1cn2nc(-c3cc(F)c4nn([C@H]5CCN(C)C6(CC6)C5)cc4c3)cc(C)c2n1 [Compound 175, 6-[7-fluoro-2-[(7S)-4-methyl-4-azaspiro[2.5]octan-7-yl]indazol-5-yl]-2,8-dimethyl-imidazo[1,2-b]pyridazine] | < 0.1 µM | < 0.1 µM
8 | 0.1 to 1 µM | – | 0.1 to 1 µM | 0.1 to 1 µM | 0.1 to 1 µM | < 0.1 µM | < 0.1 µM | Cc1cn2nc(-c3cc(F)c4nn([C@@H]5CCN(C)C6(CC6)C5)cc4c3)cc(C)c2n1 [Compound 176, 6-[7-fluoro-2-[(7R)-4-methyl-4-azaspiro[2.5]octan-7-yl]indazol-5-yl]-2,8-dimethyl-imidazo[1,2-b]pyridazine] | 1 to 10 µM | < 0.1 µM
9 | < 0.1 µM | < 0.1 µM | 0.1 to 1 µM | 0.1 to 1 µM | 0.1 to 1 µM | < 0.1 µM | < 0.1 µM | CCN1CCC(n2cc3cc(-c4cc(C)c5nc(C)cn5n4)cc(F)c3n2)CC12CCC2 (stereo not drawn) [Compound 198, 6-[2-(5-ethyl-5-azaspiro[3.5]nonan-8-yl)-7-fluoro-indazol-5-yl]-2,8-dimethyl-imidazo[1,2-b]pyridazine] | 0.1 to 1 µM | < 0.1 µM
10 | 1 to 10 µM | < 0.1 µM | – | 0.1 to 1 µM | 0.1 to 1 µM | 0.1 to 1 µM | 0.1 to 1 µM | Cc1cn2nc(-c3cc(F)c4nn(C5CCN(C(C)(C)C)CC5)cc4c3)cc(C)c2n1 [Compound 207, 2-(1-tert-butylpiperidin-4-yl)-5-{2,8-dimethylimidazo[1,2-b]pyridazin-6-yl}-7-fluoroindazole] | 0.1 to 1 µM | 0.1 to 1 µM
11 | – | < 0.1 µM | – | 0.1 to 1 µM | 0.1 to 1 µM | < 0.1 µM | < 0.1 µM | Cc1cn2nc(-c3nc4cn(C5CCNCC5)nc4c(=O)[nH]3)cc(C)c2n1 [Compound 211, 5-(2,8-dimethylimidazo[1,2-b]pyridazin-6-yl)-2-(4-piperidyl)-6H-pyrazolo[4,3-d]pyrimidin-7-one] | 0.1 to 1 µM | 0.1 to 1 µM
